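Tested at 5 concentrations; 48 h exposure; 96-well plates; endpoints linearly interpolated, else capped at highest concentration. At the GI50, growth is halved. The concentration for full growth arrest is given as TGI.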
Tests used:
Experiment in all cases: DTP human tumour cell line panel, 48 h
A498 renal = tested on: A498 renal
UACC-62 melanoma = tested on: UACC-62 melanoma
SK-MEL-2 melanoma = tested on: SK-MEL-2 melanoma
K-562 leukemia = tested on: K-562 leukemia
NCI-H522 lung = tested on: NCI-H522 lung
786-0 renal = tested on: 786-0 renal
MOLT-4 leukemia = tested on: MOLT-4 leukemia
MDA-MB-435 = tested on: MDA-MB-435
HS 578T breast = tested on: HS 578T breast
RXF 393 renal = tested on: RXF 393 renal

Row | SMILES | TGI (A498 renal) [µM] | TGI (UACC-62 melanoma) [µM] | TGI (SK-MEL-2 melanoma) [µM] | TGI (K-562 leukemia) [µM] | TGI (NCI-H522 lung) [µM] | TGI (786-0 renal) [µM] | TGI (MOLT-4 leukemia) [µM] | GI50 (A498 renal) [µM] | GI50 (MDA-MB-435) [µM] | TGI (MDA-MB-435) [µM] | GI50 (HS 578T breast) [µM] | TGI (HS 578T breast) [µM] | GI50 (K-562 leukemia) [µM] | GI50 (RXF 393 renal) [µM] | TGI (RXF 393 renal) [µM] | GI50 (786-0 renal) [µM] | GI50 (MOLT-4 leukemia) [µM] | GI50 (UACC-62 melanoma) [µM] | GI50 (SK-MEL-2 melanoma) [µM] | GI50 (NCI-H522 lung) [µM]
1 | CCOc1ccc2c(c1)[n+]([O-])c(S(=O)(=O)c1ccc(C)cc1)c(N)[n+]2[O-] | > 100 | > 100 | > 100 | > 100 | > 100 | > 100 | > 100 | – | – | – | – | – | – | – | – | – | – | – | – | –
2 | COc1cc2c3c(n(C)c(=O)c2cc1OC)-c1cc2c(cc1/C3=C\CCCN1C(=O)c3ccccc3C1=O)OCO2 | > 40 | – | – | > 40 | – | > 40 | 5.17 | > 40 | > 40 | > 40 | > 40 | > 40 | 15 | > 40 | > 40 | > 40 | 1.18 | – | – | –
3 | Cc1ccc(C)c(NC(=O)CC/C(=N\NC(=O)C(=O)NN)C(C)C(=O)c2ccc(O)cc2)c1 (stereo not given) | > 100 | > 100 | > 100 | > 100 | > 100 | > 100 | > 100 | – | – | – | – | – | – | – | > 100 | – | – | – | – | –
4 | COC(=O)CC(C(C(=O)OC)C(=O)OC)N1C(=O)OCC1c1ccccc1 (stereo not given) | > 100 | > 100 | > 100 | > 100 | > 100 | > 100 | > 100 | – | – | – | – | – | – | – | > 100 | – | – | – | – | –
5 | CC1=C(C(=O)Nc2ccc([N+](=O)[O-])cc2)C(c2ccc(N(C)C)cc2)C(C(=O)Nc2ccc([N+](=O)[O-])cc2)=C(C)N1 | 81.8 | – | 29.8 | 37.6 | 25.6 | 57.6 | 42.3 | – | – | – | – | – | – | – | 30.9 | – | – | – | – | –
6 | CC(=O)Nc1ccccc1Sc1ccccc1 | > 100 | > 100 | > 100 | > 100 | > 100 | > 100 | > 100 | – | – | – | – | – | – | – | > 100 | – | – | – | – | –
7 | N#C/C(=C/c1ccsc1)C(=O)c1ccccc1 | – | > 100 | > 100 | > 100 | > 100 | > 100 | > 100 | – | – | – | – | – | – | – | > 100 | – | – | – | – | –
8 | Cc1ccc(-c2c3c([nH]c(=O)c2C#N)-c2cc(F)ccc2OC3)cc1 | > 100 | > 100 | 98.4 | > 100 | 59.2 | > 100 | > 100 | > 100 | 35.8 | > 100 | – | – | 86.4 | > 100 | > 100 | 64.4 | 97.5 | 61.2 | 55.4 | 19
9 | COc1ccccc1C1C(C(=O)Nc2ccccc2)=C(C)NC(C)=C1C(=O)Nc1ccccc1 | 82.5 | > 100 | > 100 | > 100 | > 100 | > 100 | 56.8 | – | – | – | – | – | – | – | > 100 | – | – | – | – | –
10 | OCCC1(O)CCC(O)CC1 (stereo not given) | > 100 | > 100 | > 100 | > 100 | > 100 | > 100 | > 100 | – | – | – | – | – | – | – | – | – | – | – | – | –
11 | Cc1ccc(S(=O)(=O)C(CC(=O)N2CCCC2)C(=O)c2ccccc2)cc1 (stereo not given) | – | > 100 | – | > 100 | > 100 | > 100 | > 100 | – | – | – | – | – | – | – | > 100 | – | – | – | – | –
12 | O=c1[nH]n2c(=O)cc[nH]c2c1-c1nnns1 | > 100 | – | > 100 | > 100 | > 100 | > 100 | > 100 | – | – | – | – | – | – | – | > 100 | – | – | – | – | –
